Measurements published in ChEMBL document CHEMBL4007390, “Design, synthesis and biological evaluation of indolin-2-one-based derivatives as potent, selective and efficacious inhibitors of FMS-like tyrosine kinase3 (FLT3)” (Eur J Med Chem, 2017).

How the values were obtained:
[1] = target: Tyrosine-protein kinase JAK2 (Homo sapiens) (UniProt O60674); assay: Inhibition of human JAK2 at 0.1 uM relative to control
Cytochrome P450 2B6 = Cytochrome P450 2B6 (Homo sapiens, UniProt P20813); assay: Inhibition of microsomal CYP2B6 (unknown origin) using bupropion as substrate preincubated for 5 mins followed by NADPH addition by LC-MS/MS analysis; type: ADME
[2] = target: Ephrin type-B receptor 4 (Homo sapiens) (UniProt P54760); assay: Inhibition of human EPHB4 at 0.1 uM relative to control
[3] = target: Ribosomal protein S6 kinase beta-1 (Homo sapiens) (UniProt P23443); assay: Inhibition of human RPS6KB1 at 0.1 uM relative to control
Jurkat = assay: Antiproliferative activity against FLT3 negative human Jurkat cells after 72 hrs by MTS assay; type: functional, cell-based
[4] = target: Tyrosine-protein kinase receptor UFO (Homo sapiens) (UniProt P30530); assay: Inhibition of human AXL at 0.1 uM relative to control
MV4-11 = assay: Antiproliferative activity against human MV4-11 cells harboring FLT3 ITD mutant after 72 hrs by MTS assay; type: functional, cell-based; conditions: MV4-11, 72 h
Cytochrome P450 2C19 = Cytochrome P450 2C19 (Homo sapiens, UniProt P33261); assay: Inhibition of microsomal CYP2C19 (unknown origin) using S-mephenytoin as substrate preincubated for 5 mins followed by NADPH addition by LC-MS/MS analysis; type: ADME
[5] = target: Serine/threonine-protein kinase PLK1 (Homo sapiens) (UniProt P53350); assay: Inhibition of human PLK1 at 0.1 uM relative to control
[6] = target: Tyrosine-protein kinase Lck (Homo sapiens) (UniProt P06239); assay: Inhibition of human LCK at 0.1 uM relative to control
[7] = test system: Receptor-type tyrosine-protein kinase FLT3 (Homo sapiens), P36888 [D835Y]; conditions: 0.1 uM
[8] = target: Vascular endothelial growth factor receptor 3 (Homo sapiens) (UniProt P35916); assay: Inhibition of human VEGFR3 at 0.1 uM relative to control
[9] = test system: Platelet-derived growth factor receptor alpha (Homo sapiens), P16234 [T674I]; assay: Inhibition of human PDGFRalpha T674I mutant at 0.1 uM relative to control
[10] = target: Mitogen-activated protein kinase 1 (Homo sapiens) (UniProt P28482); assay: Inhibition of human MAPK1 at 0.1 uM relative to control
[11] = test system: Platelet-derived growth factor receptor alpha (Homo sapiens), P16234 [V561D]; assay: Inhibition of human PDGFRalpha V561D mutant at 0.1 uM relative to control
[12] = Cmax in Balb/c nude mouse at 40 mg/kg, po via gavage by LC-MS/MS analysis; type: ADME, organism-based; parameters: dose 40 mg/kg, route oral; conditions: in vivo
[13] = target: Vascular endothelial growth factor receptor 1 (Homo sapiens) (UniProt P17948); assay: Inhibition of human VEGFR1 at 0.1 uM relative to control
[14] = target: T1, Mast/stem cell growth factor receptor Kit (Homo sapiens, UniProt P10721); assay: Inhibition of human KIT at 0.1 uM relative to control
Cytochrome P450 3A4 = Cytochrome P450 3A4 (Homo sapiens, UniProt P08684); assay: Inhibition of microsomal CYP3A4 (unknown origin) using testosterone as substrate preincubated for 5 mins followed by NADPH addition by LC-MS/MS analysis; type: ADME
[15] = target: Vascular endothelial growth factor receptor 2 (Homo sapiens) (UniProt P35968); assay: Inhibition of human VEGFR2 at 0.1 uM relative to control
[16] = target: Tyrosine-protein kinase ABL1 (Homo sapiens) (UniProt P00519); assay: Inhibition of human ABL1 at 0.1 uM relative to control
[17] = Inhibition of human FLT3 ITD mutant
[18] = target: Receptor-type tyrosine-protein kinase FLT3 (Homo sapiens, UniProt P36888, D835Y); assay: Inhibition of human FLT3 D835Y mutant
[19] = target: T1, Mast/stem cell growth factor receptor Kit; assay: Inhibition of human KIT
[20] = target: Tyrosine-protein kinase SYK (Homo sapiens) (UniProt P43405); assay: Inhibition of human SYK at 0.1 uM relative to control
[21] = target: Receptor-type tyrosine-protein kinase FLT3 (Homo sapiens) (UniProt P36888); conditions: 0.1 uM
Description: Inhibition of human FLT3 at 0.1 uM relative to control

Cytochrome P450 2C9 = Cytochrome P450 2C9 (Homo sapiens, UniProt P11712); assay: Inhibition of microsomal CYP2C9 (unknown origin) using diclofenac as substrate preincubated for 5 mins followed by NADPH addition by LC-MS/MS analysis; type: ADME
Kasumi 1 = assay: Antiproliferative activity against human Kasumi-1 cells harboring […] after 72 hrs by MTS assay; type: functional, cell-based; conditions: Kasumi 1, 72 h
MDA-MB-231 = assay: Antiproliferative activity against human MDA-MB-231 cells harboring K-Ras/B-Raf after 72 hrs by MTS assay; type: functional, cell-based; conditions: MDA-MB-231, 72 h
Cytochrome P450 2C8 = Cytochrome P450 2C8 (Homo sapiens, UniProt P10632); assay: Inhibition of microsomal CYP2C8 (unknown origin) using amodiaquine as substrate preincubated for 5 mins followed by NADPH addition by LC-MS/MS analysis; type: ADME
[22] = test system: Platelet-derived growth factor receptor alpha (Homo sapiens), P16234 [D842V]; assay: Inhibition of human PDGFRalpha D842V mutant at 0.1 uM relative to control
[23] = target: Platelet-derived growth factor receptor alpha (Homo sapiens, UniProt P16234); assay: Inhibition of human PDGFRalpha
[24] = target: Serine/threonine-protein kinase B-raf (Homo sapiens) (UniProt P15056); assay: Inhibition of human BRAF at 0.1 uM relative to control
[25] = test system: RAF proto-oncogene serine/threonine-protein kinase (Homo sapiens), P04049 [Y340D,Y341D]; assay: Inhibition of human RAF1 Y340D/Y341D double mutant at 0.1 uM relative to control
786-0 = assay: Antiproliferative activity against human 786-O cells harboring VHL after 72 hrs by MTS assay; type: functional, cell-based; conditions: 786-0, 72 h

T1 sequence (P10721 whole entry): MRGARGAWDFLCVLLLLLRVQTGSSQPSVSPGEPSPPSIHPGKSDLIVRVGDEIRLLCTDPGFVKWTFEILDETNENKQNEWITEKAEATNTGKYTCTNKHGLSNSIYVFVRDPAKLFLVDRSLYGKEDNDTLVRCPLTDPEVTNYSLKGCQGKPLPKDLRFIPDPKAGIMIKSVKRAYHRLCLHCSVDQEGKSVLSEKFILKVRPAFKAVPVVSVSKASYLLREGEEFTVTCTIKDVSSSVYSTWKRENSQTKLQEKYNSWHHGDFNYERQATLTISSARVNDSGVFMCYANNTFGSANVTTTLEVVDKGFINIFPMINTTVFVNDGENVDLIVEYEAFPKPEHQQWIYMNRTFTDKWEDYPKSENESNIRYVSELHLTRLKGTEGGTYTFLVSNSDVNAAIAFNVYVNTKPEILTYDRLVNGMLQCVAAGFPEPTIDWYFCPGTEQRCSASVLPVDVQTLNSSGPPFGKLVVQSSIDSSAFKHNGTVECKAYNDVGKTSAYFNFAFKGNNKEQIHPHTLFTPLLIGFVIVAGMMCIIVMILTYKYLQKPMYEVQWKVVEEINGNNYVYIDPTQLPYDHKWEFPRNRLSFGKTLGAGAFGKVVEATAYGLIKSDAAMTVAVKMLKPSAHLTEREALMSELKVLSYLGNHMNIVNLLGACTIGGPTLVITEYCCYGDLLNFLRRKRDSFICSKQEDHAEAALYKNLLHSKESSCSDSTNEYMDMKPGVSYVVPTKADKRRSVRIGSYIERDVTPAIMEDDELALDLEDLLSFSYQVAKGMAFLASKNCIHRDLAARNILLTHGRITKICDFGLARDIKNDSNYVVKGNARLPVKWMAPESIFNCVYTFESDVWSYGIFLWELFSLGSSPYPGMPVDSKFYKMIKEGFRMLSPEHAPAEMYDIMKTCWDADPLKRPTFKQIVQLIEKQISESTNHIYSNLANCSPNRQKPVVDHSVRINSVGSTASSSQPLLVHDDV
Chain of Platelet-derived growth factor receptor alpha (P16234 whole entry): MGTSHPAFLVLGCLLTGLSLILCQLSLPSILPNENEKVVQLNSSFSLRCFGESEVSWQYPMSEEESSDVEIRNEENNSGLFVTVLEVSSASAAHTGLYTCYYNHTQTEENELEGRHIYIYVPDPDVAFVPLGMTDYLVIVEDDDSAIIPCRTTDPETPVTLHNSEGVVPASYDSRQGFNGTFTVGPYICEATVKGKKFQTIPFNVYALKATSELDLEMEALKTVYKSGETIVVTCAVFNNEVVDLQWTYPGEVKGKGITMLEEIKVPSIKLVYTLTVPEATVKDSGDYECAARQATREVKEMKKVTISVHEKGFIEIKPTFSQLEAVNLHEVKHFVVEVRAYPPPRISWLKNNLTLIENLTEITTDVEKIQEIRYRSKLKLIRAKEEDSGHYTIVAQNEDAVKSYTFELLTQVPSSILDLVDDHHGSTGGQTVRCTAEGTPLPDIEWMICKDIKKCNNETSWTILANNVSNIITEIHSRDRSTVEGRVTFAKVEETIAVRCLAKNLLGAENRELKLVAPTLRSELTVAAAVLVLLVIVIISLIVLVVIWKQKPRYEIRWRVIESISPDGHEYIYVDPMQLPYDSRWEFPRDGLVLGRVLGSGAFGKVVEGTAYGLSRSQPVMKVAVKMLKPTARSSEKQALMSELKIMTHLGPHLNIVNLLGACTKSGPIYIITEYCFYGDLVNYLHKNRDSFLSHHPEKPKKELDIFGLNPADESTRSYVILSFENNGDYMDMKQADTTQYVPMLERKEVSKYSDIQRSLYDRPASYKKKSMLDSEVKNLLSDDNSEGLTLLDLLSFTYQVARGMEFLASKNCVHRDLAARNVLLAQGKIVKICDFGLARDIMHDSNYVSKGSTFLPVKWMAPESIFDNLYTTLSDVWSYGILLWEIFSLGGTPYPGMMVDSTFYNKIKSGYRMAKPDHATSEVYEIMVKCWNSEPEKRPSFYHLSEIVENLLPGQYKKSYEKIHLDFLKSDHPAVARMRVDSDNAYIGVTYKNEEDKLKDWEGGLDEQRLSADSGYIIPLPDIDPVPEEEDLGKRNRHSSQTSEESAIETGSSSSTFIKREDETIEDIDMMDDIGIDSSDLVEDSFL
Chain of Cytochrome P450 2C19 (P33261 whole entry): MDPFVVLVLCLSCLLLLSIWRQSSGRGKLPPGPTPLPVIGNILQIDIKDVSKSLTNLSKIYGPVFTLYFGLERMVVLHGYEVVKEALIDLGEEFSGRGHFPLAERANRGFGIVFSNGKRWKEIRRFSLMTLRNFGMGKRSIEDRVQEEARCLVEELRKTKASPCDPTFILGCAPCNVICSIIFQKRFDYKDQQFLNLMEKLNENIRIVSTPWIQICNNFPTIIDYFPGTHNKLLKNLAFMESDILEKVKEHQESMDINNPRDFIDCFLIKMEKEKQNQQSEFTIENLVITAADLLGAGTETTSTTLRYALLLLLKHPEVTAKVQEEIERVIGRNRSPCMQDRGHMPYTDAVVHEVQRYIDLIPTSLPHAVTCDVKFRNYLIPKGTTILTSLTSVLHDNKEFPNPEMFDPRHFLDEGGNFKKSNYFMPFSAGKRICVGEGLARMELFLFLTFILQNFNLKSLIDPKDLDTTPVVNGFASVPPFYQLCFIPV
Chain of Tyrosine-protein kinase ABL1 (Homo sapiens) (P00519 whole entry): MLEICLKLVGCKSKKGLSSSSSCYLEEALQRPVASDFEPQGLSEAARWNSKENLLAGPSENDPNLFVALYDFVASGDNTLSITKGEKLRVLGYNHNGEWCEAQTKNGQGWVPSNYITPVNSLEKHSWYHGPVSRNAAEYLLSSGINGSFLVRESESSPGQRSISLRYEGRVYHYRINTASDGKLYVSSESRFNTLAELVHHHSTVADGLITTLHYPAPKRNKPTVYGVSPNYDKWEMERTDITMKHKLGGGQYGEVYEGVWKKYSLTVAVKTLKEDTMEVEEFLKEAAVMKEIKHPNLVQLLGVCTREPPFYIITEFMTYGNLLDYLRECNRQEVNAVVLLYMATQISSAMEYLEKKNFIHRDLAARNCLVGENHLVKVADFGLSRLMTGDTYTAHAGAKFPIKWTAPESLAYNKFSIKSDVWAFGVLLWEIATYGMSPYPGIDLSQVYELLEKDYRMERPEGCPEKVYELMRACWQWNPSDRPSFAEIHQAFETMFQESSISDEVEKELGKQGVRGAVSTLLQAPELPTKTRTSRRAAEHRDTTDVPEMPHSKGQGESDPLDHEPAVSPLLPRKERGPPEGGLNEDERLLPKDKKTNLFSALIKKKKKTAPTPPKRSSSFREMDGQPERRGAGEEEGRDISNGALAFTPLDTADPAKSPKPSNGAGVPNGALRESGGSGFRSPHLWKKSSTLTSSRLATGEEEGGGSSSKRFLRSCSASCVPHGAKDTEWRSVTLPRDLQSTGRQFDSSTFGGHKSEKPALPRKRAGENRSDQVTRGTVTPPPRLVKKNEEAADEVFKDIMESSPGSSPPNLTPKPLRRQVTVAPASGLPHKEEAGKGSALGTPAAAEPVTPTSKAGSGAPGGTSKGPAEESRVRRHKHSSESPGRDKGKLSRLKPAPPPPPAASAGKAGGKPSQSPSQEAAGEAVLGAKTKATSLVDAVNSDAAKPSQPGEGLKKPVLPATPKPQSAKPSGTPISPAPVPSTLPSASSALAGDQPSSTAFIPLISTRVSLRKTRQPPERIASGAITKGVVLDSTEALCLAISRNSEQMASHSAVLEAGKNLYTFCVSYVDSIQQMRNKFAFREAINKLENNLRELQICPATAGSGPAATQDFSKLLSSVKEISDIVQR
Chain of Vascular endothelial growth factor receptor 1 (Homo sapiens) (P17948 whole entry): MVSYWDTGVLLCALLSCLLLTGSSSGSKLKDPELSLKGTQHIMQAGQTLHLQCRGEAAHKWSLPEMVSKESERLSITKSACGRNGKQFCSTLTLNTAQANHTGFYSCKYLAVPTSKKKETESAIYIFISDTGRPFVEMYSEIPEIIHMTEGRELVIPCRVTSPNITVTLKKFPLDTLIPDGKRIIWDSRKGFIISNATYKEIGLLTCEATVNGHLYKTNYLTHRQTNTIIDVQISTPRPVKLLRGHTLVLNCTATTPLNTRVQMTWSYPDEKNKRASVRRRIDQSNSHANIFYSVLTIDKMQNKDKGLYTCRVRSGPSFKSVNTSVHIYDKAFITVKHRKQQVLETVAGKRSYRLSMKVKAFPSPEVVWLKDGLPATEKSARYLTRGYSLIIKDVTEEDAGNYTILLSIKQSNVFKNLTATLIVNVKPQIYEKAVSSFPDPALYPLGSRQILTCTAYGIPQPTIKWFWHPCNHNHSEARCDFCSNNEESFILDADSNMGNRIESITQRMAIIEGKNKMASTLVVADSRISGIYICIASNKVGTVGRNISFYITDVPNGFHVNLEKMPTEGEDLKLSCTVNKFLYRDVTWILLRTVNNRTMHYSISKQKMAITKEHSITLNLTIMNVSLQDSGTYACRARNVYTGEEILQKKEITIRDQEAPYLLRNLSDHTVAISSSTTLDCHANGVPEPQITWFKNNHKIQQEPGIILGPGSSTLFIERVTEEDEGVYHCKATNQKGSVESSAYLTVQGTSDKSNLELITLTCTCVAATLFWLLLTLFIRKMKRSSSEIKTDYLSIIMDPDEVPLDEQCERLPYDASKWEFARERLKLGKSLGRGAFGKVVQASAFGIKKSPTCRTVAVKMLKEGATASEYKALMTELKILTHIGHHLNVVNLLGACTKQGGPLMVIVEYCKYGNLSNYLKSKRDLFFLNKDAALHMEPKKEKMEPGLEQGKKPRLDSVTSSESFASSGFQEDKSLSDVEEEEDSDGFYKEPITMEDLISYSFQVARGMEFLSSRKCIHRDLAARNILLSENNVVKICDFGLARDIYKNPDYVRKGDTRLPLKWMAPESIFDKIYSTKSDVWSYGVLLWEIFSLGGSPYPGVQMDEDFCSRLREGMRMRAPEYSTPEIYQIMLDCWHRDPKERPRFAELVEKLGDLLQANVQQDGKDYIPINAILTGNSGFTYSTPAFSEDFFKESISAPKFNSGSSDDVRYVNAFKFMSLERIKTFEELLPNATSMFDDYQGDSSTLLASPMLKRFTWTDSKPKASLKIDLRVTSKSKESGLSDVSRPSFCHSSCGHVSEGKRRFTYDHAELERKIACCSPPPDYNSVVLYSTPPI
Chain of Platelet-derived growth factor receptor alpha (Homo sapiens), P16234 [V561D] (P16234 whole entry V561D): as the sequence (P16234 whole entry) above, with V561D counted along it
Chain of Platelet-derived growth factor receptor alpha (Homo sapiens), P16234 [T674I] (P16234 whole entry T674I): as the sequence (P16234 whole entry) above, with T674I counted along it

Cc1[nH]c(/C=C2\C(=O)Nc3ccc(F)cc32)c(C)c1NC(=O)[C@H]1CCCN1.Cl
inhibition [1]: -4% | IC50 (Cytochrome P450 2B6): > 33 µM | inhibition [2]: -4% | inhibition [3]: 8% | IC50 (Jurkat): 4.18 µM | inhibition [4]: 44% | IC50 (MV4-11): 24.8 nM | IC50 (Cytochrome P450 2C19): > 33 µM | inhibition [5]: -3% | inhibition [6]: 43% | inhibition [7]: 93% | inhibition [8]: 47% | inhibition [9]: 98% | inhibition [10]: -7% | inhibition [11]: 82% | Cmax [12]: 709 ng/mL | inhibition [13]: 30% | inhibition [14]: 85% | IC50 (Cytochrome P450 3A4): > 33 µM | inhibition [15]: 38% | inhibition [16]: 20% | IC50 [17]: 0.7 nM | IC50 [18]: 2.7 nM | IC50 [19]: 227 nM | inhibition [20]: -3% | inhibition [21]: 95% | IC50 (Cytochrome P450 2C9): > 33 µM | IC50 (Kasumi 1): 250 nM | IC50 (MDA-MB-231): > 20 µM | IC50 (Cytochrome P450 2C8): > 33 µM | inhibition [22]: 21% | IC50 [23]: 175 nM | inhibition [24]: 0% | inhibition [25]: 18% | IC50 (786-0): 12.2 µM
